Assays:
Assay type in all cases: biochemical
[1] = biological target: T1, Tm(d)CMPK (Thermotoga maritima, UniProt Q9X1F6); test: TLC or HPLC, […] h cascade; conditions: 1 mM NMP, 1.2 mM ATP, 5 mM acetyl phosphate with TmAcK (ATP regeneration), 10 mM MgCl2, pH 7.6, 37 °C
T1 construct: gene cmk; synthetic gene, full length, expressed in E. coli, 80 °C heat step and Ni-NTA; tag not described
T1 sequence (Q9X1F6 1-220): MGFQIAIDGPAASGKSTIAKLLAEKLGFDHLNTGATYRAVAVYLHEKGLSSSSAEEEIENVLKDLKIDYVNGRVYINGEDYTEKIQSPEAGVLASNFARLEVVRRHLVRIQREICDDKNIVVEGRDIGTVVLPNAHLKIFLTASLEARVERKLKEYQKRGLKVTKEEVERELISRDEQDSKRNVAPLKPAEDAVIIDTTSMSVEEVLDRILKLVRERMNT

[2] = biological target: T2, TmUMPK (Thermotoga maritima, UniProt Q9X1U0); test: HPLC conversion, […] h; conditions: 1 mM substrate, 1.2 mM ATP, 2 mM MgCl2, 50 mM KCl, 5 mM DTT, Tris pH 7.6, 37 °C
T2 construct: gene pyrH; synthetic gene, full length, expressed in E. coli, 80 °C heat step and Ni-NTA; tag not described
T2 sequence (Q9X1U0 1-231): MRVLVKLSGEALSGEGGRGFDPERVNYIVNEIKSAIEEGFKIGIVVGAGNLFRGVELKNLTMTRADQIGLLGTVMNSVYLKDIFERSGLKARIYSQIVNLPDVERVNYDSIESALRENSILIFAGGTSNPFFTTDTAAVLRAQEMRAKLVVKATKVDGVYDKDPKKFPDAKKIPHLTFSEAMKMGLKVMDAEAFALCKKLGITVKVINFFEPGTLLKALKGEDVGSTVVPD

[3] = biological target: T3, TmAMPK (Thermotoga maritima, UniProt Q9X1I8); test: TLC or HPLC, […] h cascade; conditions: 1 mM NMP, 1.2 mM ATP, 5 mM acetyl phosphate with TmAcK (ATP regeneration), 10 mM MgCl2, pH 7.6, 37 °C
T3 construct: gene adk; synthetic gene, full length, expressed in E. coli, 80 °C heat step and Ni-NTA; tag not described
T3 sequence (Q9X1I8 1-220): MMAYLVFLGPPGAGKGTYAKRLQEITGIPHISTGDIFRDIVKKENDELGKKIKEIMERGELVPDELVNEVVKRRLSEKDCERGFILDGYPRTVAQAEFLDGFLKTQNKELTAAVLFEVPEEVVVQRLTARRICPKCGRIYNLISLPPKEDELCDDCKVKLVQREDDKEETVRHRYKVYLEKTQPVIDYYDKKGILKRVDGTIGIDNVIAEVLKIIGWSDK

[4] = biological target: T4, TmPK (Thermotoga maritima, UniProt Q9WY51); test: HPLC conversion, […] h; conditions: 1 mM substrate, 1.2 mM phosphoenolpyruvate, 2 mM MgCl2, 50 mM KCl, pH 7.6, 37 °C
T4 construct: gene pyk; synthetic gene, full length, expressed in E. coli, 80 °C heat step and Ni-NTA; tag not described
T4 sequence (Q9WY51 1-466): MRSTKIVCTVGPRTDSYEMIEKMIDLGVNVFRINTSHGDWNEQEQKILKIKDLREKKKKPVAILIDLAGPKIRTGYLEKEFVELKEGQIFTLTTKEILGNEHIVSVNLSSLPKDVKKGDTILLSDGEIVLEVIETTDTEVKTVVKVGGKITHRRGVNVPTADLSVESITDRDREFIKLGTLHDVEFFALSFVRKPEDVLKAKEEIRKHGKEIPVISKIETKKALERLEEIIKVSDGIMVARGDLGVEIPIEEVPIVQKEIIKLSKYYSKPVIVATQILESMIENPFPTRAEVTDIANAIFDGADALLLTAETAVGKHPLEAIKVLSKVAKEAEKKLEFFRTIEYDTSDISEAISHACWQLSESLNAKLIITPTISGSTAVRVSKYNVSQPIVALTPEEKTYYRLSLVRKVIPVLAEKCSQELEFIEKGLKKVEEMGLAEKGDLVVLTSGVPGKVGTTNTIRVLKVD

[5] = biological target: T5, TmRK (Thermotoga maritima, UniProt Q9X055); test: HPLC conversion, […] h; conditions: 1 mM substrate, 1.2 mM ATP, 2 mM MgCl2, 50 mM KCl, 5 mM DTT, Tris pH 7.6, 37 °C
T5 construct: gene rbsK; synthetic gene, full length, expressed in E. coli, 80 °C heat step and Ni-NTA; tag not described; PfkB family
T5 sequence (Q9X055 1-299): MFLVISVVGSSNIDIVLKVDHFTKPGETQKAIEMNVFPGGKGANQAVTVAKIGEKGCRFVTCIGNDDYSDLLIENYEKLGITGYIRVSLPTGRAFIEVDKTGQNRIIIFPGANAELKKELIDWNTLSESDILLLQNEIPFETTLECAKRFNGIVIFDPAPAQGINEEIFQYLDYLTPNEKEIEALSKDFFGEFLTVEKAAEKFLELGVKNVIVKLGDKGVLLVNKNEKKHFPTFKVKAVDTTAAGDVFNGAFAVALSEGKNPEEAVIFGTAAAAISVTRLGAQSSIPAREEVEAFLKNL

[6] = biological target: T6, TmTK (Thermotoga maritima, UniProt Q9WYN2); test: HPLC conversion, […] h; conditions: 1 mM substrate, 1.2 mM ATP, 2 mM MgCl2, 50 mM KCl, 5 mM DTT, Tris pH 7.6, 37 °C
T6 construct: gene tdk; synthetic gene, full length, expressed in E. coli, 80 °C heat step and Ni-NTA; tag not described
T6 sequence (Q9WYN2 whole entry): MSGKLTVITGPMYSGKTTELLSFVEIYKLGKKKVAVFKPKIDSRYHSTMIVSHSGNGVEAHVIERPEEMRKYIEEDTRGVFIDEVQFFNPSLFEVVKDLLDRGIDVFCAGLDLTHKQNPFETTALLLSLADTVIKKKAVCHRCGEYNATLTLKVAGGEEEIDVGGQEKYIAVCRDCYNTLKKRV

[7] = biological target: T7, TmAcK (Thermotoga maritima, UniProt Q9WYB1); test: HPLC conversion, […] h; conditions: 1 mM substrate, 1.2 mM acetyl phosphate, 2 mM MgCl2, 50 mM KCl, pH 7.6, 37 °C
T7 construct: gene ackA; synthetic gene, full length, expressed in E. coli, 80 °C heat step and Ni-NTA; tag not described
T7 sequence (Q9WYB1 1-403): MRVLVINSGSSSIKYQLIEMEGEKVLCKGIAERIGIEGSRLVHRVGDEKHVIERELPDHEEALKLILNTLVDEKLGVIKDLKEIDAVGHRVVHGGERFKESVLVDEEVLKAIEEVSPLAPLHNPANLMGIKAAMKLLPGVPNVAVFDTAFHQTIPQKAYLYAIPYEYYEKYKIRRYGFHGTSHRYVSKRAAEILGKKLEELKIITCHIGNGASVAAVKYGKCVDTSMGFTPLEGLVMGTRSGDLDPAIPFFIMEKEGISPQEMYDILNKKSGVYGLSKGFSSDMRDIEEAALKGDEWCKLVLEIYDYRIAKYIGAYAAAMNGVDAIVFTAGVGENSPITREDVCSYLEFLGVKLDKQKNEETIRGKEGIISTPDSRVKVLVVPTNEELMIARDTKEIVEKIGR

[8] = biological target: T8, TmGMPK (Thermotoga maritima, UniProt Q9X215); test: TLC or HPLC, […] h cascade; conditions: 1 mM NMP, 1.2 mM ATP, 5 mM acetyl phosphate with TmAcK (ATP regeneration), 10 mM MgCl2, pH 7.6, 37 °C
T8 construct: gene gmk; synthetic gene, full length, expressed in E. coli, 80 °C heat step and Ni-NTA; tag not described
T8 sequence (Q9X215 1-207): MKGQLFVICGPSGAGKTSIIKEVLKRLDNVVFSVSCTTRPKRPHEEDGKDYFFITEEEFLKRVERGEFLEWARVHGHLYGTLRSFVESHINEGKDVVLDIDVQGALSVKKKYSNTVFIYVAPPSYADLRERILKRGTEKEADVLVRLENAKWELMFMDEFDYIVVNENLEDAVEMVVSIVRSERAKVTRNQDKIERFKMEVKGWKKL

Nc1ccn([C@@H]2O[C@H](COP(=O)(O)O)[C@@H](O)[C@@H]2O)c(=O)n1 [cytarabine phosphate]
TLC or HPLC, 19 h cascade [1]: Tm(d)CMPK converted the sugar-modified substrates araCMP, araGMP, and araUMP

Nc1ccn([C@@H]2O[C@H](COP(=O)(O)O)[C@@H](O)[C@H]2O)c(=O)n1 [cytidine 5′-monophosphate]
HPLC conversion, 19 h [2]: TmUMPK which accepted all natural riboNMPs

Nc1nc(F)nc2c1ncn2[C@@H]1O[C@H](COP(=O)(O)O)[C@@H](O)[C@@H]1O [fludarabine phosphate]
TLC or HPLC, 19 h cascade [3]: For TmAMPK, NTP formation was observed for all AMP analogs

Nc1nc2c(ncn2[C@@H]2O[C@H](COP(=O)(O)OP(=O)(O)O)[C@@H](O)[C@H]2O)c(=O)[nH]1 [guanosine 5′-diphosphate]
HPLC conversion, 19 h [4]: TmPK and TmAcK accepted all natural riboNDPs and deoxyriboNDPs

Cc1cn([C@H]2C[C@H](O)[C@@H](CO)O2)c(=O)[nH]c1=O [thymidine]
HPLC conversion, 19 h [5]: it phosphorylates the natural nucleosides thymidine and uridine
HPLC conversion, 19 h [6]: TmTK accepted all deoxynucleosides and uridine

O=c1ccn([C@@H]2O[C@H](COP(=O)(O)OP(=O)(O)O)[C@@H](O)[C@H]2O)c(=O)[nH]1 [uridine 5′-diphosphate]
HPLC conversion, 19 h [7]: TmPK and TmAcK accepted all natural riboNDPs and deoxyriboNDPs

O=c1ccn([C@@H]2O[C@H](COP(=O)(O)O)[C@@H](O)[C@H]2O)c(=O)[nH]1 [uridine 5′-monophosphate]
HPLC conversion, 19 h [2]: TmUMPK which accepted all natural riboNMPs

O=c1ccn([C@@H]2O[C@H](CO)[C@@H](O)[C@H]2O)c(=O)[nH]1 [uridine]
HPLC conversion, 19 h [5]: it phosphorylates the natural nucleosides thymidine and uridine
HPLC conversion, 19 h [6]: TmTK accepted all deoxynucleosides and uridine

Nc1ncnc2c1ncn2[C@@H]1O[C@H](COP(=O)(O)O)[C@@H](O)[C@@H]1O [vidarabine phosphate]
TLC or HPLC, 19 h cascade [8]: TmGMPK phosphorylated the sugar-modified NMPs araGMP, vidarabine phosphate, and araUMP
